Experimental findings from publication PMC12751141, “Disrupting α-Synuclein–ClpP interaction restores mitochondrial function and attenuates neuropathology in Parkinson’s disease models” (Molecular Neurodegeneration, 2025) are described below.

One data set has as its system αSyn oligomer. Kind of data set: αSyn oligomer ELISA, Tet-inducible αSyn SH-SY5Y cells. Type of data set: cell-based, human. The following applies: 10 µM, two days, vs TAT, n = 4. On the procedure:
After one day incubation with doxycycline (1µM), αSyn tet-on inducible expression SHSY5Y cells were treated with TAT or CS2 peptides at 10 µM for another two days. The level of αSyn monomer released into culture medium was measured using LEGEND MAX human αSyn ELISA kit (448607, Biolegend). The level of extracellular and intracellular αSyn oligomers was measured using human alpha synuclein oligomer ELISA kit (MBS730762, Mybioresource).
In general terms: An ELISA detects its analyte on a solid surface through an enzyme-linked reagent.

In the next data set the test system is SH-SY5Y cells. Kind of data set: Cytotoxicity by LDH in SH-SY5Y cells. It is filed as cell-based. On the procedure: The bimolecular fluorescence was examined 24-hour after transfection (n = 3, one-way ANOVA with Tukey’s post-hoc test, scale bar = 30 μm). (D) Quantification of the concentration (ng/ml) of extracellular αSyn monomer and oligomer, and intracellular αSyn oligomer in Tet-inducible SH-SY5Y cells that were pre-treated with TAT or CS2 peptide 30-minute before adding doxycycline (Dox) to induce αSyn expression. The concentration of αSyn species was determined by ELISA (n = 4, one-way ANOVA with Tukey’s post-hoc test; data are mean ± SEM). (E) Representative images of Mito-SOX staining in SH-SY5Y cells that were pre-treated with TAT or CS2 peptide and transfected with split Venus-αSyn vectors. Mitochondrial ROS production was determined by Mito-SOX staining after 24-hour transfection (n = 4, two-tailed Student’s t test, scale bar = 30 μm).
(G) Quantification of cytotoxicity examined by LDH assay in SH-SY5Y cells treated with indicated peptides (n = 3, one-way ANOVA with Tukey’s post-hoc test, data are mean ± SEM).

In another data set the test system is mThy1-hSNCA mice. Kind of data set: Y-maze test in mThy1-hSNCA mice. Type of data set: in vivo, mouse. On the procedure: (§1) C57BL/6 N-Tg (Thy1-SNCA)15Mjff/J (JAX: 017682) breeders (C57Bl/6NJ genetic background) were purchased from Jackson Laboratories. The mice were mated, bred, and genotyped in the animal facility of Case Western Reserve University. All mice were maintained at a 12-hour light/dark cycle (on 6 am, off 6 pm). All randomization and peptide treatments in mThy1-hSNCA mice were prepared by an experimenter not associated with the behavioral and neuropathology analysis. Only male mice were used in the study. mThy1-hSNCA transgenic mice and their age-matched WT littermates were implanted with a 28-day subcutaneous osmotic pump (Alzet, Cupertino CA, Model 2004) containing either TAT control peptide or CS2 peptide, which delivered the peptides at indicated rate (1 or 3 or 10 mg/kg/day). The pump was replaced once every four weeks. All mice were sacrificed at age of 10-month for neuropathology assessment.
On the test day, mice at 6-month-old were brought to the testing room one hour before performing the Y-maze test to allow habituation. The mice were placed in the middle of the Y-maze and allowed to explore the three arms for 4-min. During exploration, the arm entries were recorded. The equipment was cleaned after every test to avoid odor disturbance. Spontaneous alternation was defined as a successive entry into three different arms on overlapping triplet sets.
Fig. 7 CS2 treatment is protective in mThy1-hSNCA mouse model of PD. (A) Experimental schematic of CS2 treatment in mThy1-hSNCA (Thy1) mouse model of PD: TAT or CS2 peptide was administered (3 mg/kg/day) via subcutaneous osmotic pump (O.P.) in Thy1 mice and their wild-type (WT) littermates starting from age of 4-month till 10-month. […] (D) Representative images of pS129-αSyn staining in substantia nigra of WT and Thy1 mice treated with TAT or CS2 peptide (scale bar = 100 μm). […] (G) Representative images of ClpP and tyrosine […] (TH) staining on the brain coronal sections from TAT or CS2-treated Thy1 mice and their WT littermates (scale bar = 100 μm). […]

The subject of data set [1] is mThy1-hSNCA mice (midbrain). Nature of the data set: Midbrain western blot / co-immunoprecipitation in mThy1-hSNCA mice. Type of data set: in vivo, mouse. On the procedure: Tissues were homogenized and incubated on ice for 30 min in total lysis buffer (50 mM Tris–HCl, pH 7.5, 150 mM NaCl, 1% Triton X-100, and protease inhibitor). Tissues were then spun at 12,000 rpm for 10 min at 4 °C; the resulting supernatant was triton-soluble fraction. The pellet was further suspended in total lysis buffer with 1% SDS, sonicated and incubated at 100 °C for 3 min, and followed by 20-s vortex. After two more repeats of 100 °C incubation and vortex, the solution was spun at 12,000 rpm for 10 min at 4 °C; the resulting supernatant was triton-insoluble fraction.
Protein concentrations were measured using the Bradford assay. Proteins (30 µg) were then resuspended in Laemmni buffer, loaded on sodium dodecyl sulfate-polyacrylamide gel electrophoresis gels, and transferred to nitrocellulose membranes. The membranes were probed with the indicated antibodies and visualized by electrochemiluminescence.
as §1
Cells or tissues were lysed in total lysis buffer (50mM Tris-HCl, pH 7.5, 150mM NaCl, 1% Triton X-100, and protease inhibitor). Total protein lysates (800 µg) were incubated with the indicated antibodies overnight at 4 °C followed by the addition of protein A/G beads (sc-2003, Santa Cruz) for 2 h at 4 °C. Various recombinant αSyn and Clpp (500 ng) were incubated in in vitro interaction buffer (20mM Tris-HCl pH 7.5, 100mM KCl, 2mM MgCl2 and 0.1% Triton-X100) for 30 min at room temperature, and then incubated with indicated antibodies overnight at 4 °C followed by the addition of protein A/G beads for 2 h at 4 °C. The beads with immuno-precipitates were pulled down at 4000 g and washed four times with total lysis buffer/in vitro interaction buffer in the presence of 0.1% Triton X-100 and were analyzed by western blot analysis.

A further data set concerns wild-type littermates. Kind of data set: Observed effects on wild-type littermates. Type of data set: in vivo, mouse. To be noted: 3 mg/kg/day s.c.; WT littermates. On the procedure:
as §1
All behavioral analyses were conducted by an experimenter who was blinded to the genotypes and treatment groups. All mice were subjected to a series of behavioral measurements to monitor locomotor activity (open field test), spontaneous spatial working memory (Y-maze test), and motor coordination (Rotarod test).

Where [2] appears, read: 3 and 10 mg/kg/day s.c., 8 weeks, n = 3 mice/group.

With `CC(C)[C@H](NC(=O)CNC(=O)CNC(=O)CCCCCNC(=O)[C@H](CCCNC(=N)N)NC(=O)[C@H](CCCNC(=N)N)NC(=O)[C@H](CCCNC(=N)N)NC(=O)[C@H](CCC(N)=O)NC(=O)[C@H](CCCNC(=N)N)NC(=O)[C@H](CCCNC(=N)N)NC(=O)[C@H](CCCCN)NC(=O)[C@H](CCCCN)NC(=O)[C@H](CCCNC(=N)N)NC(=O)CNC(=O)[C@@H](N)Cc1ccc(O)cc1)C(=O)N[C@H](C(=O)N[C@H](C(=O)N[C@@H](C)C(=O)O)[C@@H](C)O)C(C)C` [CS2, TAT-C6-GGVVTA], in the data set on αSyn oligomer, the “extracellular αSyn oligomer” value is given as “decreased levels” and the “intracellular αSyn oligomer” value is “decreased levels”. For the same molecule, the “cell death, A53T-αSyn” value in the data set on SH-SY5Y cells (SH-SY5Y stably overexpressing A53T-αSyn, 2-day treatment, 12-hour serum starvation, n = 4) is on record as “significantly reduced cell death”. For the same molecule, the “cell death, WT-αSyn” value in the data set on SH-SY5Y cells (SH-SY5Y stably overexpressing WT-αSyn, 2-day treatment, 12-hour serum starvation, n = 4) is on record as “significantly reduced cell death”. Further, the “cell viability, healthy cells” value in the data set with SH-SY5Y cells (healthy SH-SY5Y, 3 days, n = 3) was “did not affect cell viability”. Further, the “cognitive activity in Y-maze” value in the data set on mThy1-hSNCA mice (3 mg/kg/day s.c., age of 6-month, n = 15 mice/group, vs TAT) is “improved cognitive activity”. Moreover, in the data set on mThy1-hSNCA mice (1, 3 or 10 mg/kg/day s.c. osmotic mini pump, 8 weeks from 4 months, tested at 6 months, n = 3 mice/group), the “spontaneous alternation, dose dependence” value is reported as “improved spontaneous alternation behavior in a dose-dependent manner”. Moreover, the “spontaneous alternation, 3 vs 10 mg/kg/day” value in the data set on mThy1-hSNCA mice (s.c., 8 weeks, comparison of 3 and 10 mg/kg/day) was “no significant difference between 3 and 10 mg/kg/day”. Besides, the “ClpP–αSyn interaction in midbrain” value in data set [1] (3 mg/kg/day s.c., anti-ClpP IP, n = 3 mice/group) is “abolish the interaction between ClpP and αSyn”. Further, the “other mitochondrial matrix proteins in midbrain” value in data set [1] (3 mg/kg/day s.c., western blot of LonP, ClpX, n = 3–5 mice/group) is given as “without affecting other mitochondrial matrix proteins”. For the same molecule, in data set [1] (setting [2]), the “ClpP expression in midbrain” value is “restored ClpP expression in the midbrain”; the “detergent-insoluble αSyn in midbrain” value was “reduced levels of soluble pS129-αSyn and detergent-insoluble αSyn”; the “soluble pS129-αSyn in midbrain” value is “reduced levels of soluble pS129-αSyn”. For the same molecule, the “ClpP–αSyn interaction, 3 vs 10 mg/kg/day” value in data set [1] (s.c., comparison with 10 mg/kg/day) is listed as “without disparity from 10 mg/kg/day”. The “effects on wild-type littermates” value in the data set with wild-type littermates is listed as “no observable effects on wild-type littermates”.
